Results published in ChEMBL document CHEMBL1151469, “Cytotoxic activity of N-chlorotaurine on Acanthamoeba spp” (Antimicrob Agents Chemother, 2008).
pEC50: −log10 of the molar value. Activity calls are given as the source filed them. No cut-off for these calls is given here.

What was measured:
[1] = system: Acanthamoeba hatchetti; assay: Amoebicidal activity against Trophozoites of Acanthamoeba hatchetti 11DS assessed as complete killing time at 55 mM in phosphate buffered saline at pH 7 after 3 hrs by hemocytometer using trypan blue stain in presence of 190 mM ammonium chloride; format: functional, organism-based
[2] = system: Acanthamoeba polyphaga; assay: Amoebicidal activity against Trophozoites of Acanthamoeba polyphaga 5SU assessed as complete loss of viability at 55 mM in phosphate buffered saline incubated in xenic agar medium after 14 days by hemocytometer using trypan blue stain in presence of 190 mM ammonium chloride; format: functional, organism-based
[3] = system: Acanthamoeba hatchetti; assay: Amoebicidal activity against Trophozoites of Acanthamoeba hatchetti 11DS assessed as log reduction in cell count at 10 mM in phosphate buffered saline at pH 5 within 1 hr by hemocytometer using trypan blue stain in presence of 290 mM ammonium chloride; format: functional
[4] = system: Acanthamoeba polyphaga; assay: Amoebicidal activity against Trophozoites of Acanthamoeba polyphaga 5SU in phosphate buffered saline at pH 7 after 24 hrs by hemocytometer using trypan blue stain in presence of 34 mM ammonium chloride; format: functional, organism-based
[5] = system: Acanthamoeba hatchetti; assay: Amoebicidal activity against Trophozoites of Acanthamoeba hatchetti 11DS in peptone yeast extract glucose medium at pH 7 after 6 hrs by hemocytometer using trypan blue stain; format: functional, organism-based
[6] = system: Acanthamoeba castellanii; assay: Amoebicidal activity against Trophozoites of Acanthamoeba castellanii 40AB assessed as log reduction in cell count at 10 mM in phosphate buffered saline at pH 7 after 6 hrs by hemocytometer using trypan blue stain; format: functional
[7] = system: Acanthamoeba hatchetti; assay: Amoebicidal activity against Trophozoites of Acanthamoeba hatchetti 11DS assessed as log reduction in cell count at 10 mM in phosphate buffered saline at pH 5 after 24 hrs by hemocytometer using trypan blue staining in presence of 160 mM mM beta-alanine; format: functional, organism-based
[8] = system: Acanthamoeba polyphaga; assay: Amoebicidal activity against Trophozoites of Acanthamoeba polyphaga 5SU assessed as log reduction in cell count at 10 mM in phosphate buffered saline at pH 5 after 1 hr by hemocytometer using trypan blue stain in presence of 34 mM ammonium chloride; format: functional, organism-based
[9] = system: Acanthamoeba castellanii; assay: Amoebicidal activity against excysted trophozoites of Acanthamoeba castellanii 40AB at 55 mM in peptone yeast extract glucose medium after 6 days by hemocytometer using trypan blue stain; format: functional
[10] = system: Acanthamoeba hatchetti; assay: Amoebicidal activity against Trophozoites of Acanthamoeba hatchetti 11DS in peptone yeast extract glucose medium at pH 7 after 1 hr by hemocytometer using trypan blue stain in presence of 68 mM ammonium chloride; format: functional, organism-based
[11] = system: Acanthamoeba polyphaga; assay: Amoebicidal activity against excysted trophozoites of Acanthamoeba polyphaga 5SU at 55 mM in peptone yeast extract glucose medium after 11 days by hemocytometer using trypan blue stain; format: functional
[12] = system: Acanthamoeba hatchetti; assay: Amoebicidal activity against Trophozoites of Acanthamoeba hatchetti 11DS in phosphate buffered saline at pH 7 after 1 hr by hemocytometer using trypan blue stain in presence of 34 mM ammonium chloride; format: functional, organism-based
[13] = system: Acanthamoeba polyphaga; assay: Amoebicidal activity against Trophozoites of Acanthamoeba polyphaga 5SU in peptone yeast extract glucose medium at pH 7 after 6 hrs by hemocytometer using trypan blue stain; format: functional, organism-based
[14] = system: Acanthamoeba polyphaga; assay: Amoebicidal activity against Trophozoites of Acanthamoeba polyphaga 5SU in peptone yeast extract glucose medium at pH 7 after 1 hr by hemocytometer using trypan blue stain in presence of 68 mM ammonium chloride; format: functional, organism-based
[15] = system: Acanthamoeba castellanii; assay: Amoebicidal activity against excysted trophozoites of Acanthamoeba castellanii 40AB at 55 mM in peptone yeast extract glucose medium after 4 days by hemocytometer using trypan blue stain; format: functional
[16] = system: Acanthamoeba polyphaga; assay: Amoebicidal activity against Trophozoites of Acanthamoeba polyphaga 5SU assessed as killing time at 20 mM in peptone yeast extract glucose medium at pH 7 by hemocytometer using trypan blue stain; format: functional
[17] = system: Acanthamoeba hatchetti; assay: Amoebicidal activity against Trophozoites of Acanthamoeba hatchetti 11DS in peptone yeast extract glucose medium at pH 7 after 24 hrs by hemocytometer using trypan blue stain; format: functional, organism-based
[18] = system: Acanthamoeba hatchetti; assay: Amoebicidal activity against Trophozoites of Acanthamoeba hatchetti 11DS in phosphate buffered saline at pH 7 after 24 hrs by hemocytometer using trypan blue stain; format: functional, organism-based
[19] = system: Acanthamoeba polyphaga; assay: Amoebicidal activity against excysted trophozoites of Acanthamoeba polyphaga 5SU at 55 mM in peptone yeast extract glucose medium after 24 hrs by hemocytometer using trypan blue stain; format: functional
[20] = system: Acanthamoeba polyphaga; assay: Amoebicidal activity against Trophozoites of Acanthamoeba polyphaga 5SU in peptone yeast extract glucose medium at pH 7 after 6 hrs by hemocytometer using trypan blue stain in presence of 68 mM ammonium chloride; format: functional, organism-based
[21] = system: Acanthamoeba hatchetti; assay: Amoebicidal activity against Trophozoites of Acanthamoeba hatchetti 11DS assessed as reduction of killing time at 10 mM in phosphate buffered saline at pH 5 by hemocytometer using trypan blue stain in presence of 160 mM beta-alanine; format: functional
[22] = system: Acanthamoeba polyphaga; assay: Amoebicidal activity against Trophozoites of Acanthamoeba polyphaga 5SU assessed as increase in reduction in cell count at 20 mM in peptone yeast extract glucose medium at pH 7 after 6 hrs by hemocytometer using trypan blue stain in presence of 68 mM ammonium chloride; format: functional, organism-based
[23] = system: Acanthamoeba polyphaga; assay: Amoebicidal activity against Trophozoites of Acanthamoeba polyphaga 5SU in phosphate buffered saline at pH 7 after 1 hr by hemocytometer using trypan blue stain in presence of 34 mM ammonium chloride; format: functional, organism-based
[24] = system: Acanthamoeba polyphaga; assay: Amoebicidal activity against Trophozoites of Acanthamoeba polyphaga 5SU assessed as reduction killing time at 55 mM in phosphate buffered saline at pH 7 by hemocytometer using trypan blue stain; format: functional, organism-based
[25] = system: Acanthamoeba polyphaga; assay: Amoebicidal activity against Trophozoites of Acanthamoeba polyphaga 5SU assessed as killing time at 0.16 M in peptone yeast extract glucose medium at pH 7 by hemocytometer using trypan blue stain; format: functional
[26] = system: Acanthamoeba polyphaga; assay: Amoebicidal activity against Trophozoites of Acanthamoeba polyphaga 5SU in phosphate buffered saline at pH 7 after 6 hrs by hemocytometer using trypan blue stain; format: functional, organism-based
[27] = system: Acanthamoeba hatchetti; assay: Amoebicidal activity against Trophozoites of Acanthamoeba hatchetti 11DS in peptone yeast extract glucose medium at pH 7 after 24 hrs by hemocytometer using trypan blue stain in presence of 68 mM ammonium chloride; format: functional, organism-based
[28] = system: Acanthamoeba polyphaga; assay: Amoebicidal activity against Trophozoites of Acanthamoeba polyphaga 5SU at 55 mM in phosphate buffered saline at pH 7 after 1 hr by hemocytometer using trypan blue stain in presence of 190 mM ammonium chloride; format: functional, organism-based
[29] = system: Acanthamoeba castellanii; assay: Amoebicidal activity against excysted trophozoites of Acanthamoeba castellanii 4CL at 55 mM in peptone yeast extract glucose medium after 24 hrs by hemocytometer using trypan blue stain; format: functional
[30] = system: Acanthamoeba hatchetti; assay: Amoebicidal activity against Trophozoites of Acanthamoeba hatchetti 11DS in phosphate buffered saline at pH 7 after 1 hr by hemocytometer using trypan blue stain; format: functional, organism-based
[31] = system: Acanthamoeba hatchetti; assay: Amoebicidal activity against Trophozoites of Acanthamoeba hatchetti 11DS assessed as killing time at 0.16 M in peptone yeast extract glucose medium at pH 7 by hemocytometer using trypan blue stain; format: functional
[32] = system: Acanthamoeba hatchetti; assay: Amoebicidal activity against Trophozoites of Acanthamoeba hatchetti 11DS assessed as log reduction in cell count at 10 mM in phosphate buffered saline after 24 hrs by hemocytometer using trypan blue staining; format: functional, organism-based
[33] = system: Acanthamoeba polyphaga; assay: Amoebicidal activity against Trophozoites of Acanthamoeba polyphaga 5SU in phosphate buffered saline at pH 7 after 24 hrs by hemocytometer using trypan blue stain; format: functional, organism-based
[34] = system: Acanthamoeba hatchetti; assay: Amoebicidal activity against excysted trophozoites of Acanthamoeba hatchetti 11DS at 55 mM in peptone yeast extract glucose medium after 6 days by hemocytometer using trypan blue stain; format: functional

O=S(=O)(O)CCNCl
Activity [1]: Active | Activity [2]: inactive | Activity [3]: 2 | pEC50 [4]: 2.30 | EC90 [4]: 9.03 mM | pEC50 [5]: 2.04 | Activity [6]: 2 | Activity [7]: Active | Activity [8]: Active | Activity [9]: 38000 | pEC50 [10]: 1.86 | Activity [11]: 200000 | pEC50 [12]: 1.89 | pEC50 [13]: 1.93 | pEC50 [14]: 1.78 | Activity [15]: 13000 | Activity [16]: 36 h | pEC50 [17]: 2.13 | pEC50 [18]: 2.44 | EC90 [18]: 7.56 mM | Activity [19]: 1000 | pEC50 [20]: 1.89 | Activity [21]: 15 h | Activity [22]: inactive | pEC50 [23]: 2.27 | EC90 [23]: 9.5 mM | Activity [24]: Active | Activity [25]: 30 min | pEC50 [26]: 2.40 | EC90 [26]: 7.95 mM | pEC50 [27]: 1.99 | Activity [28]: Active | Activity [29]: 0 | pEC50 [30]: 1.81 | Activity [31]: 1 h | Activity [32]: Active | pEC50 [33]: 2.46 | EC90 [33]: 7.38 mM | Activity [34]: 210000
